Experimental data from the supplement of paper PMC10307832.

Compound: Cc1ccc(NC(=O)c2ccc(CN3CCN(C)CC3)cc2)cc1Nc1nc(-c2cccnc2)cs1 [Masitinib] + NC(=O)Nc1cc(-c2cccc(F)c2)sc1C(=O)N[C@H]1CCCNC1 [AZD7762] (partner 0.2 µM)
Assay: relative viability (nuclei count vs DMSO), 5 days (fraction); higher = more cells survive
Settings: first compound 0.01 µM
Summary of the method: (§1)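 Lung cancer cell lines, seeded in 1536-well plates, were treated the following day by pin tool with a single drug or with five library-drug doses (not always all listed) in √10 steps on top of a fixed anchor-drug dose. Cells were fixed and nuclei stained in one step after 5 days, and nuclei were counted. Relative viability is the nuclei count for treated wells divided by that for vehicle wells, reported as medians of duplicate plates.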

| Cell Line | relative viability |
| --- | --- |
| NCI-H1395 | 0.379 |
| 201T | 0.516 |
| NCI-H1975 | 0.707 |
| HCC-827 | 0.224 |
| NCI-H2347 | 0.853 |
| NCI-H1355 | 0.726 |
| NCI-H650 | 1.07 |
| NCI-H1666 | 0.763 |
| EPLC-272H | 0.245 |
| NCI-H23 | 0.21 |
| NCI-H1437 | 1.09 |
| NCI-H322M | 0.435 |
| NCI-H1792 | 0.733 |
| NCI-H2085 | 0.872 |
| HCC-15 | 0.794 |
| PC-3 [JPC-3] | 0.785 |
| EKVX | 0.783 |
| LC-2-ad | 0.687 |
| NCI-H2170 | 0.714 |
| NCI-H1993 | 0.786 |
| ABC-1 | 0.711 |
| RERF-LC-KJ | 0.781 |

Same assay, conditions: first compound 0.03162 µM

| Cell Line | relative viability |
| --- | --- |
| NCI-H1395 | 0.416 |
| 201T | 0.7 |
| NCI-H1975 | 0.665 |
| HCC-827 | 0.198 |
| NCI-H2347 | 0.733 |
| NCI-H1355 | 0.747 |
| NCI-H650 | 1.02 |
| NCI-H1666 | 0.743 |
| EPLC-272H | 0.206 |
| NCI-H23 | 0.273 |
| NCI-H1915 | 0.734 |
| NCI-H1437 | 1.12 |
| NCI-H322M | 0.533 |
| NCI-H1792 | 0.502 |
| NCI-H2085 | 0.915 |
| HCC-15 | 1.04 |
| NCI-H1944 | 0.445 |
| PC-3 [JPC-3] | 0.873 |
| EKVX | 0.824 |
| LC-2-ad | 0.795 |
| NCI-H2170 | 0.887 |
| NCI-H1993 | 0.625 |
| ABC-1 | 0.901 |
| RERF-LC-KJ | 0.934 |

Same assay, conditions: first compound 0.1 µM

| Cell Line | relative viability |
| --- | --- |
| NCI-H1395 | 0.392 |
| 201T | 0.528 |
| NCI-H1975 | 0.884 |
| HCC-827 | 0.192 |
| NCI-H2347 | 0.675 |
| NCI-H1355 | 0.791 |
| NCI-H650 | 1.23 |
| NCI-H1666 | 0.806 |
| EPLC-272H | 0.211 |
| NCI-H23 | 0.277 |
| NCI-H1437 | 1.22 |
| NCI-H322M | 0.423 |
| NCI-H1792 | 0.611 |
| NCI-H2085 | 0.819 |
| HCC-15 | 1.02 |
| PC-3 [JPC-3] | 0.837 |
| EKVX | 0.71 |
| LC-2-ad | 0.707 |
| NCI-H2170 | 1.01 |
| NCI-H1993 | 0.753 |
| ABC-1 | 0.743 |
| RERF-LC-KJ | 0.949 |

Same assay, conditions: first compound 0.3162 µM

| Cell Line | relative viability |
| --- | --- |
| NCI-H1395 | 0.405 |
| 201T | 0.64 |
| NCI-H1975 | 0.434 |
| HCC-827 | 0.165 |
| NCI-H2347 | 0.647 |
| NCI-H1355 | 0.481 |
| NCI-H650 | 1.15 |
| NCI-H1666 | 0.527 |
| EPLC-272H | 0.258 |
| NCI-H23 | 0.237 |
| NCI-H1915 | 0.747 |
| NCI-H1437 | 1.07 |
| NCI-H322M | 0.515 |
| NCI-H1792 | 0.39 |
| NCI-H2085 | 0.893 |
| HCC-15 | 0.422 |
| NCI-H1944 | 0.485 |
| PC-3 [JPC-3] | 0.645 |
| LC-2-ad | 0.71 |
| NCI-H2170 | 0.828 |
| NCI-H1993 | 0.745 |
| ABC-1 | 0.493 |
| RERF-LC-KJ | 0.906 |

Same assay, conditions: first compound 1 µM

| Cell Line | relative viability |
| --- | --- |
| NCI-H1395 | 0.378 |
| 201T | 0.573 |
| NCI-H1975 | 0.546 |
| HCC-827 | 0.213 |
| NCI-H2347 | 0.73 |
| NCI-H1355 | 0.517 |
| NCI-H650 | 0.946 |
| NCI-H1666 | 0.816 |
| EPLC-272H | 0.161 |
| NCI-H23 | 0.198 |
| NCI-H1915 | 0.718 |
| NCI-H1437 | 1.06 |
| NCI-H322M | 0.534 |
| NCI-H1792 | 0.547 |
| NCI-H2085 | 0.886 |
| HCC-15 | 1.24 |
| NCI-H1944 | 0.431 |
| PC-3 [JPC-3] | 0.642 |
| EKVX | 0.637 |
| LC-2-ad | 0.818 |
| NCI-H2170 | 0.685 |
| NCI-H1993 | 0.684 |
| ABC-1 | 0.801 |
| RERF-LC-KJ | 0.92 |

Compound: Cc1ccc(NC(=O)c2ccc(CN3CCN(C)CC3)cc2)cc1Nc1nc(-c2cccnc2)cs1 [Masitinib] + CS(=O)(=O)N1CCN(Cc2cc3nc(-c4cccc5[nH]ncc45)nc(N4CCOCC4)c3s2)CC1 [Pictilisib] (partner 1 µM)
Assay: as above
Settings: first compound 0.01 µM
Summary of the method: as §1

| Cell Line | relative viability |
| --- | --- |
| NCI-H1395 | 0.695 |
| 201T | 0.642 |
| NCI-H1975 | 0.288 |
| HCC-827 | 0.998 |
| NCI-H2347 | 0.742 |
| NCI-H1355 | 0.454 |
| NCI-H650 | 0.921 |
| NCI-H1666 | 0.393 |
| EPLC-272H | 0.29 |
| NCI-H23 | 0.434 |
| NCI-H1437 | 0.432 |
| NCI-H322M | 0.545 |
| NCI-H1792 | 0.277 |
| NCI-H2085 | 0.522 |
| HCC-15 | 0.604 |
| PC-3 [JPC-3] | 0.71 |
| LC-2-ad | 0.435 |
| NCI-H2170 | 0.32 |
| NCI-H1993 | 0.859 |
| ABC-1 | 0.686 |
| RERF-LC-KJ | 0.496 |

Same assay, conditions: first compound 0.03162 µM

| Cell Line | relative viability |
| --- | --- |
| NCI-H1395 | 0.577 |
| 201T | 0.623 |
| NCI-H1975 | 0.305 |
| HCC-827 | 0.918 |
| NCI-H2347 | 0.646 |
| NCI-H1355 | 0.264 |
| NCI-H650 | 0.909 |
| NCI-H1666 | 0.382 |
| EPLC-272H | 0.304 |
| NCI-H23 | 0.493 |
| NCI-H1915 | 0.97 |
| NCI-H1437 | 0.421 |
| NCI-H322M | 0.463 |
| NCI-H1792 | 0.209 |
| NCI-H2085 | 0.455 |
| HCC-15 | 0.72 |
| NCI-H1944 | 0.334 |
| PC-3 [JPC-3] | 0.761 |
| EKVX | 0.364 |
| LC-2-ad | 0.46 |
| NCI-H2170 | 0.28 |
| ABC-1 | 0.623 |
| RERF-LC-KJ | 0.514 |

Same assay, conditions: first compound 0.1 µM

| Cell Line | relative viability |
| --- | --- |
| NCI-H1395 | 0.645 |
| 201T | 0.646 |
| NCI-H1975 | 0.331 |
| HCC-827 | 0.977 |
| NCI-H2347 | 0.668 |
| NCI-H1355 | 0.418 |
| NCI-H650 | 1.09 |
| NCI-H1666 | 0.474 |
| EPLC-272H | 0.319 |
| NCI-H23 | 0.525 |
| NCI-H1915 | 0.664 |
| NCI-H1437 | 0.403 |
| NCI-H322M | 0.481 |
| NCI-H1792 | 0.288 |
| NCI-H2085 | 0.469 |
| HCC-15 | 0.672 |
| NCI-H1944 | 0.352 |
| PC-3 [JPC-3] | 0.761 |
| EKVX | 0.463 |
| LC-2-ad | 0.467 |
| NCI-H2170 | 0.299 |
| NCI-H1993 | 1.05 |
| ABC-1 | 0.977 |
| RERF-LC-KJ | 0.617 |

Same assay, conditions: first compound 0.3162 µM

| Cell Line | relative viability |
| --- | --- |
| NCI-H1395 | 0.565 |
| 201T | 0.556 |
| NCI-H1975 | 0.224 |
| HCC-827 | 0.921 |
| NCI-H2347 | 0.825 |
| NCI-H1355 | 0.331 |
| NCI-H650 | 0.864 |
| NCI-H1666 | 0.246 |
| EPLC-272H | 0.284 |
| NCI-H23 | 0.495 |
| NCI-H1915 | 0.853 |
| NCI-H1437 | 0.421 |
| NCI-H322M | 0.503 |
| NCI-H1792 | 0.197 |
| NCI-H2085 | 0.396 |
| HCC-15 | 0.77 |
| NCI-H1944 | 0.317 |
| PC-3 [JPC-3] | 0.459 |
| EKVX | 0.275 |
| LC-2-ad | 0.409 |
| NCI-H2170 | 0.271 |
| NCI-H1993 | 0.778 |
| ABC-1 | 0.652 |
| RERF-LC-KJ | 0.404 |

Same assay, conditions: first compound 1 µM

| Cell Line | relative viability |
| --- | --- |
| NCI-H1395 | 0.58 |
| 201T | 0.639 |
| NCI-H1975 | 0.289 |
| HCC-827 | 0.942 |
| NCI-H2347 | 0.685 |
| NCI-H1355 | 0.441 |
| NCI-H650 | 0.929 |
| NCI-H1666 | 0.346 |
| EPLC-272H | 0.293 |
| NCI-H23 | 0.457 |
| NCI-H1915 | 0.908 |
| NCI-H1437 | 0.382 |
| NCI-H322M | 0.483 |
| NCI-H1792 | 0.225 |
| NCI-H2085 | 0.595 |
| HCC-15 | 0.686 |
| NCI-H1944 | 0.345 |
| PC-3 [JPC-3] | 0.656 |
| EKVX | 0.412 |
| LC-2-ad | 0.412 |
| NCI-H2170 | 0.301 |
| NCI-H1993 | 0.825 |
| ABC-1 | 0.61 |
| RERF-LC-KJ | 0.457 |
